Here are results for 1 compound from patent US8580308B2, “Modafinil pharmaceutical compositions” (Cephalon, Inc., priority 2002, dated 2013).

Data set [1] in a line: density of modafinil. It is filed as physicochemical. From the text:
Although primarily described herein with respect to “cumulative total number of particles,” it is within the ability of one skilled in the art to also make blends based upon weight of the portions used from each of the discrete lots, as detailed above. In particular, the density of modafinil is about 0.50 grams per cubic centimeter (bulk density) and about 0.60 grams per cubic centimeter (tap density). Using the density information, the statistical information that is described herein, and assuming the particles of modafinil are spherical, accurate determinations of the appropriate weight of particles in each discrete lot can be made. Similar calculations can be made with respect to the surface area of the particles.

The conditions of data set [2]: monkeys, single administration; cited from earlier work.
The conditions of data set [3]: mice, single administration; cited from earlier work.
For data set [4] the following is noted: humans; cited from earlier work.

For `NC(=O)C[S+]([O-])C(c1ccccc1)c1ccccc1` (centres unmarked) [modafinil, 2-(benzhydrylsulfinyl)acetamide], in data set [1], the bulk density entry is “about 0.50 grams per cubic centimeter” and the tap density result is “about 0.60 grams per cubic centimeter”. Further, the nocturnal activity result in data set [2] is on record as “increased nocturnal activity”. Further, the locomotor activity result in data set [3] was “increased locomotor activity”. Besides, in data set [4], the “treatment of idiopathic hypersomnia and narcolepsy” value is reported as “successfully tested”.
